The target in this experiment is human F508del-CFTR (Homo sapiens, UniProt P13569, DEL508-508). The experiment is described as follows: F508del-CFTR cell surface expression (corrector activity), DiscoveRx ß-galactosidase complementation chemiluminescence assay in recombinant U2OS cell line.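 For all read-outs here: U2OS cells co-expressing ProLink-tagged F508del-CFTR and a membrane-anchored enzyme acceptor, where more surface CFTR restores β-galactosidase activity measured by chemiluminescence.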 Conditions: for EC50: EC50, F508del-CFTR cell surface expression, U2OS cells, 16h compound incubation, geomean values; for Emax: U2OS, in relation to Emax of corrector lumacaftor (=100%), arithmetic mean values.

Each structure is given as a SMILES string.

Broadly, the EC50 is the concentration needed to bring the measured effect to its halfway point. By Emax is commonly meant the size of the effect at its maximum, as opposed to the concentration needed.

Chain of human F508del-CFTR (P13569 with tags, fused parts or gaps DEL508-508): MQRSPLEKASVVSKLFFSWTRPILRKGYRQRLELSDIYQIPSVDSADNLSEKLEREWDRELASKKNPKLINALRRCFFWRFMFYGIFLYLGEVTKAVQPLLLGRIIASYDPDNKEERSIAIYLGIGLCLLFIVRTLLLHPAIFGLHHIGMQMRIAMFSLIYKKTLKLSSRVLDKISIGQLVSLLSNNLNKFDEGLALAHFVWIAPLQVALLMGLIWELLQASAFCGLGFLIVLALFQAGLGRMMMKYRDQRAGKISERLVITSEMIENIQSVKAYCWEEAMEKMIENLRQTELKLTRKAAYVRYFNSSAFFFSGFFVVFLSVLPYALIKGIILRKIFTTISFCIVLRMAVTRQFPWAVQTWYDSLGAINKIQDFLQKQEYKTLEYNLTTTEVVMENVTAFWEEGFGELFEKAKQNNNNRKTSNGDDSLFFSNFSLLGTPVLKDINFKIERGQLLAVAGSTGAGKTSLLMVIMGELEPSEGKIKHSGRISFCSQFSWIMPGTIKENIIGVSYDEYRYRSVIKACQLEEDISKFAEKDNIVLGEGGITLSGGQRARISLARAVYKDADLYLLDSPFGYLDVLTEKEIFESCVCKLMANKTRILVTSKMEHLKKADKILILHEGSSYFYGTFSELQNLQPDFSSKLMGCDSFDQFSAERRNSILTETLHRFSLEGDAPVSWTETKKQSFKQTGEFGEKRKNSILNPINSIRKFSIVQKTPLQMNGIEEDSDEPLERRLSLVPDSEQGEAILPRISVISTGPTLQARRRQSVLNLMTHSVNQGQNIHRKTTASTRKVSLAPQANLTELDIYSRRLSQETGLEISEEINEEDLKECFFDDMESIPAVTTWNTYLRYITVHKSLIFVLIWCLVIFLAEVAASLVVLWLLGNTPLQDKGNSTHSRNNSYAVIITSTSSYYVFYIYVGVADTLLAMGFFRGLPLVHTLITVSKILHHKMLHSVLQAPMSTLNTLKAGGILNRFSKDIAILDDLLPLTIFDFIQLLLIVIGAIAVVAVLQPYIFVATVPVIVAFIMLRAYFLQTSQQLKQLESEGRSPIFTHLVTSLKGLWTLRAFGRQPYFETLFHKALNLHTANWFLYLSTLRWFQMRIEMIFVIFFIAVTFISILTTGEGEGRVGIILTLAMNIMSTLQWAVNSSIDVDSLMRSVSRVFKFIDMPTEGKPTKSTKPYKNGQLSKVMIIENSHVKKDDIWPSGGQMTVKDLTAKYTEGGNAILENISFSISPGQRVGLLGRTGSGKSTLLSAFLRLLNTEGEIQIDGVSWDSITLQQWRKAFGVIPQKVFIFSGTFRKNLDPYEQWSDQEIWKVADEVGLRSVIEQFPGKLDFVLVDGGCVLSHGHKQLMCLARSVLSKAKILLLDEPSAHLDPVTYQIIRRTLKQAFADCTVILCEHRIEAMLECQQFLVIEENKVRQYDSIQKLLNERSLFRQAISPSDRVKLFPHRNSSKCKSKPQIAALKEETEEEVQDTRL

Turning to `CC(C)C[C@H]1C(=O)N2CCN(C3CC3)C[C@@H]2C(=O)N[C@H](Cc2ccccc2)COc2cnc3ccccc3c2C(=O)N[C@H](C(=O)NCCc2nc3c(s2)CCC3)CC(=O)N1C` [Example 404, (9S,13S,19aR,22R)-22-benzyl-18-cyclopropyl-N-(2-(5,6-dihydro-4H-cyclopenta[d]thiazol-2-yl)ethyl)-13-isobutyl-12-methyl-7,11,14,20-tetraoxo-7,8,9,10,11,12,13,14,17,18,19,19a,20,21,22,23-hexadecahydro-16H-pyrazino[2′,11:6,7][1]oxa[4,7,10,14]tetraazacycloheptadecino[17,16-c]quinoline-9-carboxamide], the EC50 stood at 157 nM and the Emax came out at 254%.
For `CC(C)C[C@H]1C(=O)N2CCN(C3CC3)C[C@H]2C(=O)N[C@H](Cc2ccccc2)COc2cnc3ccccc3c2C(=O)N[C@H](C(=O)NCCc2nc3c(s2)CCC3)CC(=O)N1C` [Example 405, (9S,13S,19aS,22R)-22-benzyl-18-cyclopropyl-N-(2-(5,6-dihydro-4H-cyclopenta[d]thiazol-2-yl)ethyl)-13-isobutyl-12-methyl-7,11,14,20-tetraoxo-7,8,9,10,11,12,13,14,17,18,19,19a,20,21,22,23-hexadecahydro-16H-pyrazino[2′,1′:6,7][1]oxa[4,7,10,14]tetraazacycloheptadecino[17,16-c]quinoline-9-carboxamide], in that order: 343 nM and 171%.
Consider `COc1cccc(CCNC(=O)[C@@H]2CC(=O)N(C)[C@@H](CC(C)C)C(=O)N3CCCC[C@@H]3C(=O)N[C@H](Cc3ccccc3)COc3cc4oc(C)nc4cc3C(=O)N2)c1` [Example 406, (7S,11S,21R,23aR)-21-benzyl-7-isobutyl-N-(3-methoxyphenethyl)-8,16-dimethyl-6,9,13,23-tetraoxo-1,3,4,6,7,8,9,10,11,12,13,20,21,22,23,23a-hexadecahydro-2H-oxazolo[5′,4′:4,5]benzo[1,2-p]pyrido[2,1-f][1]oxa[4,7,10,14]tetraazacycloheptadecine-11-carboxamide], for which the EC50 is 409 nM and the Emax was determined as 173%.
For `COc1cccc(CCNC(=O)[C@@H]2CC(=O)N(C)[C@@H](CC(C)C)C(=O)N3CCOC[C@@H]3C(=O)N[C@H](Cc3ccccc3)COc3cc4oc(C)nc4cc3C(=O)N2)c1` [Example 407], in that order: 684 nM and 123%.
On the same counts, the results for `CC(C)C[C@H]1C(=O)N(C)CC(=O)N[C@H](Cc2ccccc2)COc2ccc3c(c2C(=O)N[C@H](C(=O)NCCc2ccc4c(c2)OCO4)CC(=O)N1C)OC(F)(F)O3` [Example 408, (8R,14S,18S)-N-(2-(benzo[d][1,3]dioxol-5-yl)ethyl)-8-benzyl-2,2-difluoro-14-isobutyl-12,15-dimethyl-10,13,16,20-tetraoxo-7,8,9,10,11,12,13,14,15,16,17,18,19,20-tetradecahydro-[1,3]dioxolo[4′,5′:5,6]benzo[1,2-p][1]oxa[4,7,10,14]tetraazacycloheptadecine-18-carboxamide] are 241 nM and 134%.
On the same counts, the results for `COc1cccc(CCNC(=O)[C@@H]2CC(=O)N(C)[C@@H](CC(C)C)C(=O)N(C)CC(=O)N[C@H](Cc3ccccc3)COc3ccc4c(c3C(=O)N2)OC(F)(F)O4)c1` [Example 409, (8R,14S,18S)-8-benzyl-2,2-difluoro-14-isobutyl-N-(3-methoxyphenethyl)-12,15-dimethyl-10,13,16,20-tetraoxo-7,8,9,10,11,12,13,14,15,16,17,18,19,20-tetradecahydro-[1,3]dioxolo[4′,5′:5,6]benzo[1,2-p][1]oxa[4,7,10,14]tetraazacycloheptadecine-18-carboxamide] are 214 nM and 144%.
Consider `Cc1cc(CCNC(=O)[C@@H]2CC(=O)N(C)[C@@H](CC(C)C)C(=O)N(CCC3CCCCC3)CC(=O)N[C@H](Cc3ccccc3)COc3ccc4nc(C)oc4c3C(=O)N2)on1` [Example 410, (8R,14S,18S)-8-benzyl-12-(2-cyclohexylethyl)-14-isobutyl-2,15-dimethyl-N-(2-(3-methylisoxazol-5-yl)ethyl)-10,13,16,20-tetraoxo-7,8,9,10,11,12,13,14,15,16,17,18,19,20-tetradecahydrooxazolo[4′,5′:5,6]benzo[1,2-p][1]oxa[4,7,10,14]tetraazacycloheptadecine-18-carboxamide], for which the EC50 worked out at 129 nM and the Emax is 269%.
For `Cc1cc(CCNC(=O)[C@@H]2CC(=O)N(C)[C@@H](CC(C)C)C(=O)N(CCC3CCCCC3)CC(=O)N[C@H](Cc3ccccc3)COc3cnc4c(F)cccc4c3C(=O)N2)on1` [Example 411, (3S,7S,13R)-13-benzyl-9-(2-cyclohexylethyl)-18-fluoro-7-isobutyl-6-methyl-N-(2-(3-methylisoxazol-5-yl)ethyl)-1,5,8,11-tetraoxo-1,2,3,4,5,6,7,8,9,10,11,12,13,14-tetradecahydro-[1]oxa[4,7,10,14]tetraazacycloheptadecino[17,16-c]quinoline-3-carboxamide], in that order: 138 nM and 250%.
For `COc1cccc(CCNC(=O)[C@@H]2CC(=O)N(C)[C@@H](CC(C)C)C(=O)N3CCOC[C@@H]3C(=O)N[C@H](Cc3ccccc3)COc3cnc4ccccc4c3C(=O)N2)c1` [Example 412, (9S,13S,19aR,22R)-22-benzyl-13-isobutyl-N-(3-methoxyphenethyl)-12-methyl-7,11,14,20-tetraoxo-7,8,9,10,11,12,13,14,16,17,19,19a,20,21,22,23-hexadecahydro-[1,4]oxazino[3′,4′:6,7][1]oxa[4,7,10,14]tetraazacycloheptadecino[17,16-c]quinoline-9-carboxamide], in that order: 377 nM and 291%.
On the same counts, the results for `COc1cccc(CCNC(=O)[C@@H]2CC(=O)N(C)[C@@H](CC(C)C)C(=O)N3CCOC[C@H]3C(=O)N[C@H](Cc3ccccc3)COc3cnc4ccccc4c3C(=O)N2)c1` [Example 413, (9S,13S,19aS,22R)-22-benzyl-13-isobutyl-N-(3-methoxyphenethyl)-12-methyl-7,11,14,20-tetraoxo-7,8,9,10,11,12,13,14,16,17,19,19a,20,21,22,23-hexadecahydro-[1,4]oxazino[3′,4′:6,7][1]oxa[4,7,10,14]tetraazacycloheptadecino[17,16-c]quinoline-9-carboxamide] are 557 nM and 129%.
Take `COCCN1CCN2C(=O)[C@H](CC(C)C)N(C)C(=O)C[C@@H](C(=O)NCCc3cccc(OC(F)F)c3)NC(=O)c3c(cnc4ccccc34)OC[C@@H](Cc3ccccc3)NC(=O)[C@H]2C1` [Example 414, (9S,13S,19aR,22R)-22-benzyl-N-(3-(difluoromethoxy)phenethyl)-13-isobutyl-18-(2-methoxyethyl)-12-methyl-7,11,14,20-tetraoxo-7,8,9,10,11,12,13,14,17,18,19,19a,20,21,22,23-hexadecahydro-16H-pyrazino[2′,1′:6,7][1]oxa[4,7,10,14]tetraazacycloheptadecino[17,16-c]quinoline-9-carboxamide]: the EC50 was determined as 372 nM and the Emax was 251%.

Source of the values: patent publication US20240208992A1, “MACROCYCLES AS CFTR MODULATORS” (Idorsia Pharmaceuticals Ltd, priority 2021, published 2024).
